Data set [1] concerns the target rhinovirus polymerase (Human rhinovirus 14, UniProt P03303). Type of data set: biochemical.
Data set [2] deals with poliovirus polymerase (Poliovirus type 1, UniProt P03300).
Data set [3] deals with poliovirus RNA-dependent RNA polymerase 3Dpol WT (Poliovirus type 1 (Mahoney), UniProt P03300 P03300:1749-2209). Nature of the data set: filter. The following applies: tags: none stated, expressed in E. coli BL21(DE3) pLysS, N-terminal Met removed; label: 32P (alpha-32P CTP, T7 transcript); 20 bp blunt self-complementary duplex.
Data set [4] concerns the target T1, pJG-poliovirus 3D prey fusion (pJGPolio3D) (poliovirus Mahoney type 1, UniProt P03300 1749-2209).
T1 sequence: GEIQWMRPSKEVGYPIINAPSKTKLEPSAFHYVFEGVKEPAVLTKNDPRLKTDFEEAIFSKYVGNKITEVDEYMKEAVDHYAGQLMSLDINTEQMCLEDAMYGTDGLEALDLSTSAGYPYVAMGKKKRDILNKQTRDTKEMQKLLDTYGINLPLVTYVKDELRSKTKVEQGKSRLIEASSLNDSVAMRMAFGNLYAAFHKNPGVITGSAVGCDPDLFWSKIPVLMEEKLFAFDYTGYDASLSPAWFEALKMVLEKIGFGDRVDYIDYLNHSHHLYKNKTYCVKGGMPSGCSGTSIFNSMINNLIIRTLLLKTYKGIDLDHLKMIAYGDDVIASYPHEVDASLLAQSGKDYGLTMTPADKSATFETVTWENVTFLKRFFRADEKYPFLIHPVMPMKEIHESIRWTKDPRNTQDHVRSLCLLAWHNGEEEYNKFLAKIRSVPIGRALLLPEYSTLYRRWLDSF
Nature of the data set: yeast two-hybrid, colour on X-gal plates (- white); bait in row, prey in column.

The results in this text go back to US20020164348A1 (priority 2000, published 2002).

Sequence of rhinovirus polymerase (P03303 1720-2179 limits assumed): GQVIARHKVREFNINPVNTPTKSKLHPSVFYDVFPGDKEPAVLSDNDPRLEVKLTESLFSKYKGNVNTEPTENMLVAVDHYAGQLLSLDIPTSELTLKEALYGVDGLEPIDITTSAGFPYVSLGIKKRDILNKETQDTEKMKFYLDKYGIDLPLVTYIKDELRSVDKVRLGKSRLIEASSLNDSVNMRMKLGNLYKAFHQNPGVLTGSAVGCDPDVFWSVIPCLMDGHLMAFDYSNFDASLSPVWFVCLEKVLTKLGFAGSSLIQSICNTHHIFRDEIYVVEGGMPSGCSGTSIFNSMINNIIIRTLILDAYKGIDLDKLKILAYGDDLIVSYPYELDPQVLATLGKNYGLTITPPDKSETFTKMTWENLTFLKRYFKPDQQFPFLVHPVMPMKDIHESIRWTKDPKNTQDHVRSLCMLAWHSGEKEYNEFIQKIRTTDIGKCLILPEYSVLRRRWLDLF

On to “KPHKCTFEGCRKSYSRSTNLRRHLNSH (SEQ ID NO:5) [Peptide 1]”, for which the “activity of the rhinovirus polymerase” value in data set [1] is “inhibits”. As to `[Cl-].[Cl-].[Zn+2]` [ZnCl2], the “effect on decrease in specific activity with decreasing polymerase concentration” value in data set [2] is “nearly eliminates the decrease in specific activity”.

B1: 0.20 RNA (dsRNA)
RNA 1: GGCAGCUGCAUGCAGCUGCC
RNA 2: GGCAGCUGCAUGCAGCUGCC
On to B1, for which the binding result in data set [3] is “binds”.

B2: Lex202 vector control (bait vector without a polymerase) (other)
chain: MKALTARQQEVFDLIRDHISQTGMPPTRAEIAQRLGFRSPNAAEEHLKALARKGVIEIVSGASRGIRLLQEEEEGLPLVGRVAAGEPLLAQQHIEGHYQVDPSLFKPNADFLLRVSGMSMKDIGIMDGDLLAVHKTQDVRNGQVVVARIDDEVTVKRLKKQGNKVELLPENSEFKPIVVDLRQQSFTIEGLAVGVIRNGDWL
On to B2, for which the binding result in data set [4] was “no binding”.
